Laboratory results from PubChem BioAssay (NCI).
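Here, GI50 denotes the concentration required for 50% inhibition of growth. TGI denotes the concentration required for complete inhibition of growth.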

Experiments:
Assay in all cases: inhibition of tumour cell growth, NCI panel, 384-well format
[1] = system: 786-0 renal
[2] = system: EKVX NSCLC
[3] = system: MDA-MB-231 breast
[4] = system: HCT-116 colon
[5] = system: OVCAR-3 ovarian
[6] = system: CCRF-CEM leukemia
[7] = system: A549 NSCLC
[8] = system: NCI/ADR-RES ovarian
[9] = system: NCI-H460 NSCLC
[10] = system: COLO 205 colon
[11] = system: NCI-H522 lung
[12] = system: SK-MEL-2 melanoma
[13] = system: SK-OV-3 ovarian
[14] = system: UO-31 renal
[15] = system: HS 578T breast
[16] = system: NCI-H23 lung
[17] = system: LOX IMVI melanoma
[18] = system: SN12C renal
[19] = system: MALME-3M melanoma
[20] = system: UACC-257 melanoma
[21] = system: HT29 colon
[22] = system: SR leukemia
[23] = system: OVCAR-4 ovarian
[24] = system: T-47D breast
[25] = system: SK-MEL-28 melanoma
[26] = system: HOP-62 NSCLC
[27] = system: SF-268 CNS
[28] = system: NCI-H226 lung
[29] = system: SF-539 CNS
[30] = system: SNB-75 CNS
[31] = system: KM12 colon
[32] = system: MDA-MB-435 melanoma
[33] = system: U251 glioblastoma
[34] = system: NCI-H322M lung
[35] = system: CAKI-1 renal
[36] = system: TK-10 renal
[37] = system: BT-549 breast
[38] = system: MOLT-4 leukemia
[39] = system: UACC-62 melanoma
[40] = system: M14 melanoma
[41] = system: OVCAR-8 ovarian
[42] = system: MDA-MB-468 breast
[43] = system: IGROV1 ovarian
[44] = system: K-562 leukemia
[45] = system: RPMI-8226 leukemia
[46] = system: SF-295 CNS
[47] = system: HCC-2998 colon
[48] = system: OVCAR-5 ovarian
[49] = system: MCF7 breast
[50] = system: PC-3 prostate
[51] = system: HCT-15 colon
[52] = system: RXF 393 renal
[53] = system: DU-145 prostate
[54] = system: SK-MEL-5 melanoma
[55] = system: HL-60(TB) leukemia
[56] = system: SNB-19 CNS
[57] = system: SW-620 colon

## C=CCn1c(=O)c2cnc(Nc3ccc(N4CCN(C)CC4)cc3)nc2n1-c1cccc(C(C)(C)O)n1
[1]
  GI50: 183 nM
  TGI: 414 nM
[2]
  GI50: 560 nM
  TGI: 4.8 µM
[3]
  GI50: 372 nM
  TGI: 7.33 µM
[4]
  GI50: 308 nM
  TGI: 2240 nM
[5]
  GI50: 130 nM
  TGI: 328 nM
[6]
  GI50: 69.9 nM
  TGI: 197 nM
[7]
  GI50: 1020 nM
  TGI: 12.8 µM
[8]
  GI50: 1810 nM
  TGI: 4.95 µM
[9]
  GI50: 574 nM
  TGI: 3.42 µM
[10]
  GI50: 294 nM
  TGI: 829 nM
[11]
  GI50: 135 nM
  TGI: 286 nM
[12]
  GI50: 160 nM
  TGI: 393 nM
[13]
  GI50: 76.6 nM
  TGI: 1460 nM
[14]
  GI50: 274 nM
  TGI: 1250 nM
[15]
  GI50: 154 nM
  TGI: 529 nM
[16]
  GI50: 94.5 nM
  TGI: 254 nM
[17]
  GI50: 626 nM
  TGI: 2710 nM
[18]
  GI50: 311 nM
  TGI: 2270 nM
[19]
  GI50: 52.9 nM
  TGI: 342 nM
[20]
  GI50: 10 µM
  TGI: 21.9 µM
[21]
  GI50: 319 nM
  TGI: 15.2 µM
[22]
  GI50: 58.4 nM
  TGI: 184 nM
[23]
  GI50: 157 nM
  TGI: 407 nM
[24]
  GI50: 5.88 µM
  TGI: 28.9 µM
[25]
  GI50: 3.44 µM
  TGI: 17.1 µM
[26]
  GI50: 406 nM
  TGI: 2130 nM
[27]
  GI50: 559 nM
  TGI: 10.7 µM
[28]
  GI50: 1410 nM
  TGI: 9.22 µM
[29]
  GI50: 51 nM
  TGI: 178 nM
[30]
  GI50: 1210 nM
  TGI: 4.35 µM
[31]
  GI50: 218 nM
  TGI: 649 nM
[32]
  GI50: 201 nM
  TGI: 413 nM
[33]
  GI50: 419 nM
  TGI: 6.77 µM
[34]
  GI50: 233 nM
  TGI: 935 nM
[35]
  GI50: 72.3 nM
  TGI: 11.2 µM
[36]
  GI50: 171 nM
  TGI: 700 nM
[37]
  GI50: 115 nM
  TGI: 299 nM
[38]
  GI50: 29.9 nM
  TGI: 103 nM
[39]
  GI50: 354 nM
  TGI: 12.8 µM
[40]
  GI50: 51.4 nM
  TGI: 246 nM
[41]
  GI50: 219 nM
  TGI: 566 nM
[42]
  GI50: 220 nM
  TGI: 492 nM
[43]
  GI50: 173 nM
  TGI: 1090 nM
[44]
  GI50: 175 nM
  TGI: 347 nM
[45]
  GI50: 260 nM
  TGI: 1120 nM
[46]
  GI50: 357 nM
  TGI: 2260 nM
[47]
  GI50: 203 nM
  TGI: 555 nM
[48]
  GI50: 596 nM
  TGI: 6.1 µM
[49]
  GI50: 216 nM
  TGI: 11.5 µM
[50]
  GI50: 724 nM
  TGI: 21 µM
[51]
  GI50: 326 nM
  TGI: 1210 nM
[52]
  GI50: 48.7 nM
  TGI: 196 nM
[53]
  GI50: 262 nM
  TGI: 1810 nM
[54]
  GI50: 187 nM
  TGI: 460 nM
[55]
  GI50: 148 nM
  TGI: 284 nM
[56]
  GI50: 502 nM
  TGI: 15.4 µM
[57]
  GI50: 352 nM
  TGI: 1930 nM
